# In US10407455B2, “Phillygenin glucuronic acid derivative as well as preparation method and application thereof” (priority 2015, dated 2019):
# Several values for one entry are separate records, joined by “and”; a condition that tells them apart may be missing. Equal entries are not always repeated. Where two headings read alike, the source gives them in different places. Marks after values point to notes of the source that are not given here.
# How the values were obtained:
# [1] = test system: Coxsackie virus A16 (CoxA16); assay: Influences of drugs on virus-induced CPE (antiviral effective rate, MTT), CoxA16; type: cell-based; conditions: CoxA16, Vero cells, 100TCID50, drug at nearly the maximum non-cytotoxic concentration
# [2] = test system: influenza virus; type: in vivo, Kunming mice; conditions: lung suspension, mice infected with influenza virus, 5 days, n = 3
# [3] = test system: adenovirus (AdV); assay: Influences of drugs on virus-induced CPE (antiviral effective rate, MTT), ADV; type: cell-based; conditions: Vero cells, 100TCID50, drug at nearly the maximum non-cytotoxic concentration
# [4] = test system: parainfluenza virus; type: in vivo, Kunming mice
# [5] = test system: parainfluenza virus; type: in vivo, Kunming mice; conditions: lung suspension, mice infected with parainfluenza virus, 5 days, n = 3
# [6] = test system: enterovirus EV71; assay: Influences of drugs on virus-induced CPE (antiviral effective rate, MTT), EV71; type: cell-based; conditions: EV71, Vero cells, 100TCID50, drug at nearly the maximum non-cytotoxic concentration
# [7] = test system: herpes simplex virus I (HSV-I); assay: Influences of drugs on virus-induced CPE (antiviral effective rate, MTT), HSV-I; type: cell-based; conditions: Vero cells, 100TCID50, drug at nearly the maximum non-cytotoxic concentration
# [8] = test system: Parainfluenza virus; assay: Influences of drugs on virus-induced CPE (antiviral effective rate, MTT), parainfluenza virus; type: cell-based; conditions: Vero cells, 100TCID50, drug at nearly the maximum non-cytotoxic concentration
# [9] = test system: Coxsackie virus B3 (CVB3); assay: Influences of drugs on virus-induced CPE (antiviral effective rate, MTT), CVB3; type: cell-based; conditions: CVB3, Vero cells, 100TCID50, drug at nearly the maximum non-cytotoxic concentration
# [10] = test system: Influenza virus; assay: Influences of drugs on virus-induced CPE (antiviral effective rate, MTT), influenza virus; type: cell-based
# [11] = test system: respiratory syncytial virus (RSV); assay: Influences of drugs on virus-induced CPE (antiviral effective rate, MTT), RSV; type: cell-based; conditions: Vero cells, 100TCID50, drug at nearly the maximum non-cytotoxic concentration
# [12] = test system: Vero cells; conditions: 72 hours, MTT, Probit regression
# Description: Performing subculture on Vero cells for 1-2 days to form sheets and have clear boundaries, performing trypsin digestion when stereoscopic impression and diopter are high, completely absorbing digestive juice when needle tip shaped holes occur on cells surfaces, blowing away the cells with milliliters of culture solution, counting, diluting to the quantity of 5×10^7 cells/L with the culture solution (DMEM containing 10% fetal calf serum), inoculating in a 96-well culture plate, and enabling the cells to grow to a single layer.
# Cytotoxicity test: drugs are diluted with a maintenance solution (DMEM containing 2% fetal calf serum) according to concentrations shown in Table 1-1, and are used for cytotoxicity determination.
# [13] = test system: influenza virus; type: in vivo, Kunming mice; conditions: for Lung index (X ± S) / Lung index inhibition rate (%): mice infected with influenza virus, 5 days, n = 3; for inhibitory effect on the virus and the mouse virus pneumonia caused by it (in words): in vivo
# [14] = Influenza virus, Vero cells, 100TCID50, drug at nearly the maximum non-cytotoxic concentration
# [15] = High-dose group 10.0 mg/kg/d intragastric
# [16] = Low-dose group 2.25 mg/kg/d intragastric
# [17] = Medium-dose group 5.0 mg/kg/d intragastric
# [18] = mice infected with parainfluenza virus, 13.0 mg/kg/d (Compound I: High-dose group) intragastric, 5 days, n = 3
smiles,measurement,setting,value
"CCOC(=O)C1=C[C@@H](OC(CC)CC)[C@H](NC(C)=O)[C@@H](N)C1 [Oseltamivir phosphate, reference compound]",antiviral effective rate (ER %),[1],2.94%
same,Hemagglutination titer (InX),[2]; 19.5 mg/kg/d intragastric,20.47 ± 1.104
same,Inhibition rate (%) of hemagglutination titer,[2]; 19.5 mg/kg/d intragastric,35.26%
same,antiviral effective rate (ER %),[3],12.12%
same,Lung index (X ± S),"[4]; mouse, in vivo, 19.5 mg/kg/day",1.241 ± 0.046
same,Lung index inhibition rate (%),"[4]; mouse, in vivo, 19.5 mg/kg/day",21.83%
same,Hemagglutination titer (InX),[5]; 19.5 mg/kg/d intragastric,23.24 ± 1.242
same,Inhibition rate (%) of hemagglutination titer,[5]; 19.5 mg/kg/d intragastric,31.14%
same,antiviral effective rate (ER %),[6],48.65%
same,antiviral effective rate (ER %),[7],63.24** %
same,antiviral effective rate (ER %),[8],92.11** %
same,antiviral effective rate (ER %),[9],1.53%
same,antiviral effective rate (ER %),[10]; [14],82.19** %
same,antiviral effective rate (ER %),[11],39.22%
same,Maximum non-cytotoxic concentration (TC0),[12],0.27 g/L
same,Semi-cytotoxic concentration (TC50),[12],834 µg/mL
same,Lung index (X ± S),[13]; 19.5 mg/kg/d intragastric,1.176 ± 0.045
same,Lung index inhibition rate (%),[13]; 19.5 mg/kg/d intragastric,19.76%
COc1ccc(C2OCC3C(c4ccc(OC5OC(C(=O)O)C(O)C(O)C5O)c(O)c4)OCC23)cc1OC (stereo not shown) [Compound II],antiviral effective rate (ER %),[1],99.25** %
same,antiviral effective rate (ER %),[3],20.46* %
same,inhibitory effect on the virus and the mouse virus pneumonia caused by it (in words),"[4]; mouse, in vivo",obvious inhibitory effects
same,antiviral effective rate (ER %),[6],54.32%
same,antiviral effective rate (ER %),[7],93.35** %
same,antiviral effective rate (ER %),[8],90.13** %
same,antiviral effective rate (ER %),[9],11.18%
same,antiviral effective rate (ER %),[10]; [14],92.74** %
same,antiviral effective rate (ER %),[11],81.14** %
same,Maximum non-cytotoxic concentration (TC0),[12],0.103 g/L
same,Semi-cytotoxic concentration (TC50),[12],412 µg/mL
same,inhibitory effect on the virus and the mouse virus pneumonia caused by it (in words),[13],obvious inhibitory effects
"COc1cc(C2OCC3C(c4ccc5c(c4)OCO5)OCC23)ccc1OC1OC(C(=O)O)C(O)C(O)C1O [Compound III, 33,34-Methylenedioxy phillygenin-8-O-β-D-glucuronide]",antiviral effective rate (ER %),[1],100.00** %
same,antiviral effective rate (ER %),[3],22.17* %
same,inhibitory effect on the virus and the mouse virus pneumonia caused by it (in words),"[4]; mouse, in vivo",obvious inhibitory effects
same,antiviral effective rate (ER %),[6],51.64%
same,antiviral effective rate (ER %),[7],96.06** %
same,antiviral effective rate (ER %),[8],92.22** %
same,antiviral effective rate (ER %),[9],9.63%
same,antiviral effective rate (ER %),[10]; [14],91.35** %
same,antiviral effective rate (ER %),[11],86.18** %
same,Maximum non-cytotoxic concentration (TC0),[12],0.0906 g/L
same,Semi-cytotoxic concentration (TC50),[12],435 µg/mL
same,inhibitory effect on the virus and the mouse virus pneumonia caused by it (in words),[13],obvious inhibitory effects
COc1cc(C2OCC3C(c4ccc(OC5OC(C(=O)O)C(O)C(O)C5O)c(OC)c4)OCC23)ccc1O (stereo not shown) [Compound I],antiviral effective rate (ER %),[1],100.00** %
same,Hemagglutination titer (InX),[2]; [15],19.24 ± 0.513
same,Inhibition rate (%) of hemagglutination titer,[2]; [15],40.28%
same,Hemagglutination titer (InX),[2]; [16],22.16 ± 1.270
same,Inhibition rate (%) of hemagglutination titer,[2]; [16],31.26%
same,Hemagglutination titer (InX),[2]; [17],20.37 ± 0.285
same,Inhibition rate (%) of hemagglutination titer,[2]; [17],36.32%
same,antiviral effective rate (ER %),[3],21.26* %
same,Lung index (X ± S),"[4]; mouse, in vivo",1.277 ± 0.054 and 1.318 ± 0.028
same,Lung index inhibition rate (%),"[4]; mouse, in vivo",19.73% and 16.94%
same,inhibitory effect on the virus and the mouse virus pneumonia caused by it (in words),"[4]; mouse, in vivo",obvious inhibitory effects
same,Lung index (X ± S),"[4]; mouse, in vivo, 13 mg/kg/day",1.239 ± 0.037
same,Lung index inhibition rate (%),"[4]; mouse, in vivo, 13 mg/kg/day",22.26%
same,Hemagglutination titer (InX),[5]; [15],19.68 ± 0.638
same,Inhibition rate (%) of hemagglutination titer,[5]; [15],38.36%
same,Hemagglutination titer (InX),[5]; [16],21.62 ± 0.553
same,Inhibition rate (%) of hemagglutination titer,[5]; [16],33.61%
same,Hemagglutination titer (InX),[5]; [17],20.47 ± 0.583
same,Inhibition rate (%) of hemagglutination titer,[5]; [17],36.32%
same,antiviral effective rate (ER %),[6],52.15%
same,antiviral effective rate (ER %),[7],91.23** %
same,antiviral effective rate (ER %),[8],96.24** %
same,antiviral effective rate (ER %),[9],10.16%
same,antiviral effective rate (ER %),[10]; [14],95.81** %
same,antiviral effective rate (ER %),[11],83.21** %
same,Maximum non-cytotoxic concentration (TC0),[12],0.106 g/L
same,Semi-cytotoxic concentration (TC50),[12],482 µg/mL
same,Lung index (X ± S),[13]; [15],1.145 ± 0.037
same,Lung index inhibition rate (%),[13]; [15],22.82%
same,Lung index (X ± S),[13]; [16],1.225 ± 0.034
same,Lung index inhibition rate (%),[13]; [16],17.85%
same,Lung index (X ± S),[13]; [17],1.187 ± 0.028
same,Lung index inhibition rate (%),[13]; [17],20.03%
same,inhibitory effect on the virus and the mouse virus pneumonia caused by it (in words),[13],obvious inhibitory effects
COc1cc([C@H]2OC[C@H]3[C@@H]2CO[C@H]3c2ccc(OC)c(OC)c2)ccc1O [Phillygenin],antiviral effective rate (ER %),[1],97.03** %
same,Hemagglutination titer (InX),[2]; 13.0 mg/kg/d intragastric,21.15 ± 1.024
same,Inhibition rate (%) of hemagglutination titer,[2]; 13.0 mg/kg/d intragastric,29.15%
same,antiviral effective rate (ER %),[3],14.25* %
same,Lung index (X ± S),[4]; [18],1.349 ± 0.046
same,Lung index inhibition rate (%),[4]; [18],14.56%
same,Hemagglutination titer (InX),[5]; 13.0 mg/kg/d intragastric,23.63 ± 1.156
same,Inhibition rate (%) of hemagglutination titer,[5]; 13.0 mg/kg/d intragastric,27.75%
same,antiviral effective rate (ER %),[6],32.27%
same,antiviral effective rate (ER %),[7],85.36** %
same,antiviral effective rate (ER %),[8],94.06** %
same,antiviral effective rate (ER %),[9],2.29%
same,antiviral effective rate (ER %),[10]; [14],88.17** %
same,antiviral effective rate (ER %),[11],81.41** %
same,Maximum non-cytotoxic concentration (TC0),[12],0.012 g/L
same,Semi-cytotoxic concentration (TC50),[12],293 µg/mL
same,Lung index (X ± S),[13]; 13.0 mg/kg/d intragastric,1.208 ± 0.025
same,Lung index inhibition rate (%),[13]; 13.0 mg/kg/d intragastric,11.67%
"NC(=O)c1ncn([C@@H]2O[C@H](CO)[C@@H](O)[C@H]2O)n1 [Ribavirin, reference compound]",antiviral effective rate (ER %),[1],0.72%
same,Hemagglutination titer (InX),[2]; 58.5 mg/kg/d intragastric,21.87 ± 1.050
same,Inhibition rate (%) of hemagglutination titer,[2]; 58.5 mg/kg/d intragastric,32.35%
same,antiviral effective rate (ER %),[3],0.47%
same,Hemagglutination titer (InX),[5]; 58.5 mg/kg/d intragastric,24.32 ± 1.123
same,Inhibition rate (%) of hemagglutination titer,[5]; 58.5 mg/kg/d intragastric,23.25%
same,antiviral effective rate (ER %),[6],4.03** %
same,antiviral effective rate (ER %),[7],64.65** %
same,antiviral effective rate (ER %),[8],95.13** %
same,antiviral effective rate (ER %),[9],12.14%
same,antiviral effective rate (ER %),[10],56.44** %
same,antiviral effective rate (ER %),[11],52.15* %
